Among the test systems are MDA-MB-435; UO-31 renal; SF-268 CNS; SW-620 colon; PC-3 prostate; MDA-MB-231 breast; OVCAR-5 ovarian; KM12 colon; OVCAR-4 ovarian; MALME-3M melanoma.
What all share (test): inhibition of tumour cell growth, NCI panel, 48 h

The structures appear in SMILES notation. Where “and” joins values, the source holds several entries; their conditions need not be identical. Identical values can stand only once.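 Tested at 5 concentrations; 48 h exposure; 96-well plates; endpoints linearly interpolated, else capped at highest concentration. At the GI50, growth is halved. At the TGI there is no net growth.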

Consider `O=C(NS(=O)(=O)Nc1ccc(Cl)cc1)OCc1ccc(Cl)cc1Cl`, for which the TGI was 50.9 µM with MDA-MB-435; 44.2 µM with UO-31 renal; 20.6 µM in the assay with SF-268 CNS; greater than 100 µM with SW-620 colon; greater than 100 µM in the assay on PC-3 prostate; 65.7 µM in the assay with MDA-MB-231 breast. Also, the TGI in the assay on OVCAR-5 ovarian was found to be 70.3 µM; in the assay with KM12 colon, 57.2 µM; in the assay with OVCAR-4 ovarian, 76.9 µM; with MALME-3M melanoma, 47.5 µM.

In the case of `Cc1c(S(=O)(=O)c2ccccc2)c(N)n(Cc2ccccc2)c1C`, the TGI with MDA-MB-435, in the assay on UO-31 renal, in the assay on SF-268 CNS, in the assay with SW-620 colon, in the assay on PC-3 prostate and in the assay with MDA-MB-231 breast was greater than 100 µM throughout. The TGI with OVCAR-5 ovarian, with KM12 colon, with OVCAR-4 ovarian and in the assay on MALME-3M melanoma was greater than 100 µM each time.

Turning to `CCCCN(CC)c1nc(C)nc2c1c(C)c(C)n2-c1c(C)cc(C)cc1C`, the TGI in the assay on MDA-MB-435 was 33.3 µM; in the assay on UO-31 renal it was 28.9 µM; in the assay with SF-268 CNS it was 31.8 µM; in the assay on SW-620 colon, 33.4 µM; in the assay with PC-3 prostate, 26.6 µM; in the assay on MDA-MB-231 breast it was 29.1 µM. In addition, the TGI with OVCAR-5 ovarian was 28.8 µM; with KM12 colon it was 36.3 µM; with OVCAR-4 ovarian, 37.9 µM; in the assay with MALME-3M melanoma, 29.6 µM.

As for `COc1ccc(-c2c(C#N)c(S)n(C3OC(COC(C)=O)C(OC(C)=O)C(OC(C)=O)C3OC(C)=O)c(=O)c2C#N)cc1` (stereo not drawn), the GI50 with MDA-MB-435 was 56.9 µM and 21.3 µM; with MDA-MB-231 breast, 21.7 µM and 55 µM; with MALME-3M melanoma it was 77.1 µM and 37.7 µM. Also, the TGI is > 100 µM and 50.6 µM with MDA-MB-435; > 100 µM and 70.1 µM in the assay on UO-31 renal; greater than 100 µM in the assay with SF-268 CNS; greater than 100 µM in the assay on SW-620 colon; greater than 100 µM in the assay with PC-3 prostate; 83.5 µM and > 100 µM with MDA-MB-231 breast. Further, the TGI was greater than 100 µM in the assay on OVCAR-5 ovarian; greater than 100 µM with KM12 colon; > 100 µM and 77.6 µM in the assay with OVCAR-4 ovarian; greater than 100 µM with MALME-3M melanoma.

In the case of `CC(C)=CCN1CC(C)C(=O)Nc2cc(Cl)ccc21` (stereo not drawn), the TGI with MDA-MB-435 is 52.1 µM; in the assay with UO-31 renal it was greater than 100 µM; in the assay with SF-268 CNS, greater than 100 µM; with SW-620 colon it was 67.9 µM; with PC-3 prostate it was 47.5 µM; in the assay on MDA-MB-231 breast it was 50.2 µM. The TGI in the assay with OVCAR-5 ovarian is greater than 100 µM; with KM12 colon, 59.8 µM; with OVCAR-4 ovarian, 83.9 µM; with MALME-3M melanoma, 62.3 µM.

For `CC(=O)OCC1OC(N2C(=O)/C(=C\c3ccc(Cl)cc3)C(N)=Nc3ccccc32)C(OC(C)=O)C(OC(C)=O)C1OC(C)=O` (stereo not drawn), the TGI is 30.7 µM with MDA-MB-435; 58.8 µM with UO-31 renal; 42 µM in the assay with SF-268 CNS; greater than 100 µM with SW-620 colon; 59.8 µM in the assay with PC-3 prostate; 49.9 µM in the assay with MDA-MB-231 breast. Further, the TGI in the assay with OVCAR-5 ovarian was greater than 100 µM; in the assay on KM12 colon, 39.5 µM; in the assay with OVCAR-4 ovarian it was 66.4 µM; with MALME-3M melanoma it was 68.4 µM.

On to `COc1ncc(C=C(C#N)C#N)c(OC)n1`, for which the TGI with MDA-MB-435 is 78.8 µM; with UO-31 renal it was 56.8 µM; with SF-268 CNS, greater than 100 µM; in the assay on SW-620 colon it was greater than 100 µM; in the assay with PC-3 prostate, greater than 100 µM; in the assay on MDA-MB-231 breast, greater than 100 µM. The TGI in the assay on OVCAR-5 ovarian, in the assay with KM12 colon, with OVCAR-4 ovarian and with MALME-3M melanoma was greater than 100 µM in each case.

In the case of `Clc1nc(Cl)nc(NC23CC4CC(CC(C4)C2)C3)n1`, the TGI in the assay on MDA-MB-435 was 34.4 µM; in the assay with UO-31 renal, 23.5 µM; with SF-268 CNS, 38.2 µM; in the assay with SW-620 colon, 31.5 µM; with PC-3 prostate, greater than 49.6 µM; in the assay with MDA-MB-231 breast, 36.7 µM. In addition, the TGI came out at 39.5 µM with OVCAR-5 ovarian, 32.2 µM with KM12 colon, 39.2 µM in the assay on OVCAR-4 ovarian and 30.5 µM in the assay on MALME-3M melanoma.

Source of the values: PubChem BioAssay (NCI).
